Assay results reported in patent US10975077B2 (Novira Therapeutics, Inc., priority 2016, dated 2021).
pEC50: −log10 of the molar value.

What follows are compounds tested on HBV (encapsidated HBV DNA, HepG2.2.15 cells) (assay: HBV replication inhibition assay, BDNA assay in HepG2.2.15 cells). Details: Activity in BDNA-assay.
Format: cell-based
Procedure, shortened: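 HepG2.2.15 cells (stably integrated HBV, 40,000/well) treated with serially diluted compound in 0.5% DMSO for 6 days, medium and compound refreshed at day 3. DNase-treated supernatant lysed with proteinase K; encapsidated HBV DNA quantified by bDNA, percent inhibition versus DMSO controls, EC50 by nonlinear fit.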
Compound C[C@@H]1Cc2nn3c(c2CN1C(=O)Nc1ccc(F)c(C(F)(F)F)c1)C(=O)N(C)CC(F)(CO)C3 (single isomer, unassigned) [Compound 133_D2, (3R,8S*)-8-fluoro-N-(4-fluoro-3-(trifluoromethyl)phenyl)-8-(hydroxymethyl)-3,10-dimethyl-11-oxo-1,3,4,7,8,9,10,11-octahydro-2H-pyrido[4′,3′:3,4]pyrazolo[1,5-a][1,4]diazepine-2-carboxamide_D2] has a pEC50 of 7.00 to 9.00.
Compound CCC(O)C1CN(C)C(=O)c2c3c(nn2C1)CCN(C(=O)Nc1ccc(F)c(C#N)c1F)C3 (single isomer, unassigned) [Compound 098_E4, (R*)—N-(3-cyano-2,4-difluorophenyl)-8-((R*)-1-hydroxypropyl)-10-methyl-11-oxo-1,3,4,7,8,9,10,11-octahydro-2H-pyrido[4′,3′:3,4]pyrazolo[1,5-a][1,4]diazepine-2-carboxamide] has a pEC50 of 6.00 to 6.30.
Compound CN1CC(CNCC(F)F)Cn2nc3c(c2C1=O)CN(C(=O)Nc1ccc(F)c(C(F)(F)F)c1)CC3 (single isomer, unassigned) [Compound 119_E2, (S*)-8-(((2,2-difluoroethyl)amino)methyl)-N-(4-fluoro-3-(trifluoromethyl)phenyl)-10-methyl-11-oxo-1,3,4,7,8,9,10,11-octahydro-2H-pyrido[4′,3′:3,4]pyrazolo[1,5-a][1,4]diazepine-2-carboxamide] has a pEC50 of 7.00 to 9.00.
Compound C[C@@H]1Cc2nn3c(c2CN1C(=O)Nc1cc(Br)c(F)cc1F)C(=O)N(C)CC(CO)C3 (single isomer, unassigned) [Compound 085_D2, (3R,8R*)—N-(5-bromo-2,4-difluorophenyl)-8-(hydroxymethyl)-3,10-dimethyl-11-oxo-1,3,4,7,8,9,10,11-octahydro-2H-pyrido[4′,3′:3,4]pyrazolo[1,5-a][1,4]diazepine-2-carboxamide] has a pEC50 of 7.00 to 9.00.
C[C@@H]1Cc2nn3c(c2CN1C(=O)Nc1ccc(F)c(C#N)c1)C(=O)N(C)CC(F)C3 (single isomer, unassigned) [Compound 137_D2, (3R,8S*)-N-(3-Cyano-4-fluorophenyl)-8-fluoro-3,10-dimethyl-11-oxo-1,3,4,7,8,9,10,11-octahydro-2H-pyrido[4′,3′:3,4]pyrazolo[1,5-a][1,4]diazepine-2-carboxamide] was tested, and the pEC50 was 7.00 to 9.00.
Work on C[C@@H]1Cc2nn3c(c2CN1C(=O)Nc1cc(C(F)(F)F)c(F)cc1F)C(=O)N(C)CC(CO)C3 (single isomer, unassigned) [Compound 082_D2, (3R,8R*)—N-(2,4-difluoro-5-(trifluoromethyl)phenyl)-8-(hydroxymethyl)-3,10-dimethyl-11-oxo-1,3,4,7,8,9,10,11-octahydro-2H-pyrido[4′,3′:3,4]pyrazolo[1,5-a][1,4]diazepine-2-carboxamide] yielded a pEC50 of 6.30 to 7.00.

Same assay, conditions: Hepatitis B virus, HepG2.2.15, Activity in BDNA-assay
With C[C@@H]1Cc2nn3c(c2CN1C(=O)Nc1ccc(F)c(Cl)c1)C(=O)N(CCO)CCC3 [Compound 049, (3R)— N-(3-chloro-4-fluorophenyl)-10-(2-hydroxyethyl)-3-methyl-11-oxo-1,3,4,7,8,9,10,11-octahydro-2H-pyrido[4′,3′:3,4]pyrazolo[1,5-a][1,4]diazepine-2-carboxamide] the pEC50 was 7.00 to 9.00.
CN1C(=O)c2c3c(nn2CCC1(C)CO)CCN(C(=O)Nc1ccc(F)c(Cl)c1)C3 (stereo not drawn) [Compound 061, N-(3-chloro-4-fluorophenyl)-9-(hydroxymethyl)-9,10-dimethyl-11-oxo-1,3,4,7,8,9,10,11-octahydro-2H-pyrido[4′,3′:3,4]pyrazolo[1,5-a][1,4]diazepine-2-carboxamide] was tested, and the pEC50 was 7.00 to 9.00.
For C[C@@H]1Cc2nn3c(c2CN1C(=O)Nc1cc(Cl)c(F)cc1Br)C(=O)N(CC(F)F)CCC3 [Compound 071, (R)—N-(2-bromo-5-chloro-4-fluorophenyl)-10-(2,2-difluoroethyl)-3-methyl-11-oxo-1,3,4,7,8,9,10,11-octahydro-2H-pyrido[4′,3′:3,4]pyrazolo[1,5-a][1,4]diazepine-2-carboxamide], the pEC50 was 7.00 to 9.00.
For CN1CC(N(C)C)Cn2nc3c(c2C1=O)CN(C(=O)Nc1ccc(F)c(Cl)c1)CC3 (stereo not drawn) [Compound 020, N-(3-chloro-4-fluorophenyl)-8-(dimethylamino)-10-methyl-11-oxo-1,3,4,7,8,9,10,11-octahydro-2H-pyrido[4′,3′:3,4]pyrazolo[1,5-a][1,4]diazepine-2-carboxamide], the pEC50 was 7.00 to 9.00.
For C[C@@H]1Cc2nn3c(c2CN1C(=O)Nc1ccc(F)c(C#N)c1)C(=O)N(C)[C@H](COCC(F)F)C3 [Compound 150, (3R,8S)-N-(3-cyano-4-fluorophenyl)-8-((2,2-difluoroethoxy)methyl)-3,9-dimethyl-10-oxo-3,4,7,8,9,10-hexahydropyrido[4′,3′:3,4]pyrazolo[1,5-a]pyrazine-2(1H)-carboxamide], the pEC50 was 7.00 to 9.00.
Compound C[C@@H]1Cc2nn3c(c2CN1C(=O)Nc1ccc(F)c(C#N)c1)C(=O)N(C)CC1(C3)CC(F)(F)C1 [Compound 143, (R)-N-(3-Cyano-4-fluorophenyl)-3,3-difluoro-3′,10′-dimethyl-11′-oxo-1′,3′,4′,9′,10′,11′-hexahydro-2′H,7′H-spiro[cyclobutane-1,8′-pyrido[4′,3′:3,4]pyrazolo[1,5-a][1,4]diazepine]-2′-carboxamide] has a pEC50 of 7.00 to 9.00.
In the case of Cc1cc(NC(=O)N2CCc3nn4c(c3C2)C(=O)N(C)CC(F)C4)ccc1F (stereo not drawn) [Compound 010, 8-fluoro-N-(4-fluoro-3-methylphenyl)-10-methyl-11-oxo-1,3,4,7,8,9,10,11-octahydro-2H-pyrido[4′,3′:3,4]pyrazolo[1,5-a][1,4]diazepine-2-carboxamide], the pEC50 was 7.00 to 9.00.
With CN1CC(CNCC(F)F)Cn2nc3c(c2C1=O)CN(C(=O)Nc1ccc(F)c(C#N)c1)CC3 (single isomer, unassigned) [Compound 118_E1, (R*)—N-(3-cyano-4-fluorophenyl)-8-(((2,2-difluoroethyl)amino)methyl)-10-methyl-11-oxo-1,3,4,7,8,9,10,11-octahydro-2H-pyrido[4′,3′:3,4]pyrazolo[1,5-a][1,4]diazepine-2-carboxamide] the pEC50 was 6.30 to 7.00.
With CN1CCC(CO)n2nc3c(c2C1=O)CN(C(=O)Nc1ccc(F)c(Cl)c1)CC3 (stereo not drawn) [Compound 114, N-(3-chloro-4-fluorophenyl)-7-(hydroxymethyl)-10-methyl-11-oxo-1,3,4,7,8,9,10,11-octahydro-2H-pyrido[4′,3′:3,4]pyrazolo[1,5-a][1,4]diazepine-2-carboxamide] the pEC50 was 7.00 to 9.00.
With CN1CC(CN2CCCC2)Cn2nc3c(c2C1=O)CN(C(=O)Nc1ccc(F)c(Cl)c1)CC3 (stereo not drawn) [Compound 069, N-(3-chloro-4-fluorophenyl)-10-methyl-11-oxo-8-(pyrrolidin-1-ylmethyl)-1,3,4,7,8,9,10,11-octahydro-2H-pyrido[4′,3′:3,4]pyrazolo[1,5-a][1,4]diazepine-2-carboxamide] the pEC50 was 7.00 to 9.00.
Compound CCC(O)C1CN(C)C(=O)c2c3c(nn2C1)CCN(C(=O)Nc1ccc(F)c(Br)c1F)C3 (single isomer, unassigned) [Compound 101_E1, (R*)—N-(3-bromo-2,4-difluorophenyl)-8-((S*)-1-hydroxypropyl)-10-methyl-11-oxo-1,3,4,7,8,9,10,11-octahydro-2H-pyrido[4′,3′:3,4]pyrazolo[1,5-a][1,4]diazepine-2-carboxamide] has a pEC50 of 7.00 to 9.00.
CCC(O)C1CN(C)C(=O)c2c3c(nn2C1)CCN(C(=O)Nc1cc(F)c(F)c(F)c1F)C3 (single isomer, unassigned) [Compound 105_E1, (R*)-8-((S*)-1-hydroxypropyl)-10-methyl-11-oxo-N-(2,3,4,5-tetrafluorophenyl)-1,3,4,7,8,9,10,11-octahydro-2H-pyrido[4′,3′:3,4]pyrazolo[1,5-a][1,4]diazepine-2-carboxamide] showed a pEC50 of 7.00 to 9.00.
Work on C[C@@H]1Cc2nn3c(c2CN1C(=O)Nc1ccnc(Br)c1F)C(=O)N(CC(F)F)CCC3 [Compound 075] yielded a pEC50 of 7.00 to 9.00.
For CN1CC(N2CC(F)(F)C2)Cn2nc3c(c2C1=O)CN(C(=O)Nc1ccc(F)c(Cl)c1)CC3 (stereo not drawn) [Compound 022, N-(3-chloro-4-fluorophenyl)-8-(3,3-difluoroazetidin-1-yl)-10-methyl-11-oxo-1,3,4,7,8,9,10,11-octahydro-2H-pyrido[4′,3′:3,4]pyrazolo[1,5-a][1,4]diazepine-2-carboxamide], the pEC50 was 6.30 to 7.00.
With C[C@@H]1Cc2nn3c(c2CN1C(=O)Nc1ccc(F)c(C#N)c1)C(=O)N(C)C[C@@H](COCC(F)F)C3 [Compound 134_D1, (3R,8R)—N-(3-Cyano-4-fluorophenyl)-8-((2,2-difluoroethoxy)methyl)-3,10-dimethyl-11-oxo-1,3,4,7,8,9,10,11-octahydro-2H-pyrido[4′,3′:3,4]pyrazolo[1,5-a][1,4]diazepine-2-carboxamide] the pEC50 was 7.00 to 9.00.
Compound CCC(O)C1CN(C)C(=O)c2c3c(nn2C1)CCN(C(=O)Nc1ccc(F)c(Cl)c1F)C3 (single isomer, unassigned) [Compound 100_E1, (R*)—N-(3-chloro-2,4-difluorophenyl)-8-((S*)-1-hydroxypropyl)-10-methyl-11-oxo-1,3,4,7,8,9,10,11-octahydro-2H-pyrido[4′,3′:3,4]pyrazolo[1,5-a][1,4]diazepine-2-carboxamide] has a pEC50 of 7.00 to 9.00.
For C[C@@H]1Cc2nn3c(c2CN1C(=O)Nc1ccc(F)c(C(F)(F)F)c1)C(=O)N(C)CC(C)(C)C3 [Compound 140, (R)-N-(4-Fluoro-3-(trifluoromethyl)phenyl)-3,8,8,10-tetramethyl-11-oxo-1,3,4,7,8,9,10,11-octahydro-2H-pyrido[4′,3′:3,4]pyrazolo[1,5-a][1,4]diazepine-2-carboxamide], the pEC50 was 7.00 to 9.00.
For C[C@@H]1Cc2nn3c(c2CN1C(=O)Nc1ccc(F)c(Cl)c1F)C(=O)N(C)CC(CO)C3 (single isomer, unassigned) [Compound 089_D1, (3R,8S*)—N-(3-chloro-2,4-difluorophenyl)-8-(hydroxymethyl)-3,10-dimethyl-11-oxo-1,3,4,7,8,9,10,11-octahydro-2H-pyrido[4′,3′:3,4]pyrazolo[1,5-a][1,4]diazepine-2-carboxamide], the pEC50 was 7.00 to 9.00.
